Assays:
Hpt1 = Hpt1 (Bacillus anthracis, UniProt A0A6L7HDS1); settings: labelled compound ([5′-α-32P]); 10 mM Tris pH 7.5, 100 mM NaCl, 5 mM MgCl2, room temperature
Gmk = Gmk (Bacillus anthracis, UniProt Q81WG7); assay type: binding
Rel (RelA) = molecular target: T1, Rel (RelA) (Bacillus subtilis, UniProt O54408); test: […] TLC hydrolysis time course; assay type: biochemical; settings: 200 nM enzyme, 100 μM substrate, 25 mM Tris-HCl pH 7.5, 1 mM MnCl2, 37 °C
T1 construct: purified

Xpt = Xpt (Bacillus anthracis, UniProt Q81SQ5); settings: labelled compound ([5′-α-32P]); 10 mM Tris pH 7.5, 100 mM NaCl, 5 mM MgCl2, room temperature
Obg = Obg (Bacillus anthracis, UniProt Q81LF0); test: biochemical
Der = Der (Bacillus anthracis, UniProt Q81SW9); settings: labelled compound ([5′-α-32P]); 10 mM Tris pH 7.5, 100 mM NaCl, 5 mM MgCl2, room temperature
[1] = molecular target: T2, translation elongation factor G (EF-G) (Bacillus anthracis, UniProt Q81VT3); test: biochemical
T2 construct: gene fusA

purified protein [2] = substrate: Nc1nc2c(ncn2[C@@H]2O[C@H](COP(=O)(O)OP(=O)(O)OP(=O)(O)O)[C@@H](OP(=O)(O)OP(=O)(O)O)[C@H]2O)c(=O)[nH]1; test: purified protein; settings: 100 nM enzyme, 40 mM Tris-HCl pH 7.5, 100 mM NaCl, 10 mM MgCl2, 37 °C, cooperative, fitted with Hill equation
purified protein [3] = substrate: Nc1nc2c(ncn2[C@@H]2O[C@H](COP(=O)(O)OP(=O)(O)O)[C@@H](OP(=O)(O)OP(=O)(O)O)[C@H]2O)c(=O)[nH]1; test: purified protein; settings: 100 nM enzyme, 40 mM Tris-HCl pH 7.5, 100 mM NaCl, 10 mM MgCl2, 37 °C, Hill n fixed to 1

T2 sequence (Q81VT3 whole entry, looked up): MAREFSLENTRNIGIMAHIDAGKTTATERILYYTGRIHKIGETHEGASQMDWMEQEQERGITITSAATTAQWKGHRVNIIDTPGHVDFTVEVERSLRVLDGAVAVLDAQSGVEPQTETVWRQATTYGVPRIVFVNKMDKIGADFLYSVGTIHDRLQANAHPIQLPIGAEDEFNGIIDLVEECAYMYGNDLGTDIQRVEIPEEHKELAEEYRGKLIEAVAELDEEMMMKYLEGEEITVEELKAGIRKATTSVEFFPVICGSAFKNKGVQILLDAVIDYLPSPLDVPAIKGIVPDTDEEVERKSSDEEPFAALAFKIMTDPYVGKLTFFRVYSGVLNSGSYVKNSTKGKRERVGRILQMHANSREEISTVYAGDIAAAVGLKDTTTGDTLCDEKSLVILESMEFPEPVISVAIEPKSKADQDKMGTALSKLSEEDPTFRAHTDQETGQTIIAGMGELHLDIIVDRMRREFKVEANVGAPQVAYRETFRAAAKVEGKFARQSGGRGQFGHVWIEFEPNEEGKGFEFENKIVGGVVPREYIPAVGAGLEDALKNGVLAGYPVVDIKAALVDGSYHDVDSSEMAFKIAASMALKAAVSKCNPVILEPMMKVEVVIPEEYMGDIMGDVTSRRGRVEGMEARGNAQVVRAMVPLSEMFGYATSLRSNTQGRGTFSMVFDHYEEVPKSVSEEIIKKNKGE
Chain of Obg (Q81LF0 whole entry, looked up): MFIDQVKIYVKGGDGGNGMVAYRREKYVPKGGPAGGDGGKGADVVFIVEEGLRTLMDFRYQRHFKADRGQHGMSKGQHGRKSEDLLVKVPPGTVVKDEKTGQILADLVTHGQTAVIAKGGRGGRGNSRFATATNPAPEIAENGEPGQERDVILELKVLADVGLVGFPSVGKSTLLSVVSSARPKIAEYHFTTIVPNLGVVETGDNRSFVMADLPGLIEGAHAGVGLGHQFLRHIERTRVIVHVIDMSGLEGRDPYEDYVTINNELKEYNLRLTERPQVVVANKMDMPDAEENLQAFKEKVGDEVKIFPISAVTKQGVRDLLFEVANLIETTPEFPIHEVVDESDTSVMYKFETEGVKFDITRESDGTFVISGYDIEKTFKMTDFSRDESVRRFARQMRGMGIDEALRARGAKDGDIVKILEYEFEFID
T1 sequence (O54408 whole entry): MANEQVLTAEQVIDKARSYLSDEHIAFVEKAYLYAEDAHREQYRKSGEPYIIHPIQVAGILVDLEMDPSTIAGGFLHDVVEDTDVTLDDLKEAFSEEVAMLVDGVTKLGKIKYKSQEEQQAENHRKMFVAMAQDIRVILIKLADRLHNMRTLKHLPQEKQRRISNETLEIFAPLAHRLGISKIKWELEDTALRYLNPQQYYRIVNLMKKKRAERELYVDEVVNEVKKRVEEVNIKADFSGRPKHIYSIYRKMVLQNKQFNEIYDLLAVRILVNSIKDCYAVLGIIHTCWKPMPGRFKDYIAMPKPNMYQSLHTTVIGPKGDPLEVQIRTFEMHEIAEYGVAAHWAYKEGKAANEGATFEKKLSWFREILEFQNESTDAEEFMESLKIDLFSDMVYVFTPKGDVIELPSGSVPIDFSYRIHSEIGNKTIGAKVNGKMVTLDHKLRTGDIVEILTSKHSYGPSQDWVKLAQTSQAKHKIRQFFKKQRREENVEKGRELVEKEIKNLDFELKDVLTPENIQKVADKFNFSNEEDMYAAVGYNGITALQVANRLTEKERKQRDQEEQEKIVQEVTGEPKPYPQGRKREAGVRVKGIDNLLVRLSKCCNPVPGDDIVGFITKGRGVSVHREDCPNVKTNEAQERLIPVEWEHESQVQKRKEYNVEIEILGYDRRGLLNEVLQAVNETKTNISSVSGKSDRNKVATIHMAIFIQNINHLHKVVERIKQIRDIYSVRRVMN
Chain of Xpt (Q81SQ5 whole entry, looked up): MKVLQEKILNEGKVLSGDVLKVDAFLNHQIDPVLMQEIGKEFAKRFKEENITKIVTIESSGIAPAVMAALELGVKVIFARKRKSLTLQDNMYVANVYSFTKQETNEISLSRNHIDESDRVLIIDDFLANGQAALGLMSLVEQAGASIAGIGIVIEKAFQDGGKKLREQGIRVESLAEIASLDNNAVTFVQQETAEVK
Chain of Hpt1 (A0A6L7HDS1 1-180): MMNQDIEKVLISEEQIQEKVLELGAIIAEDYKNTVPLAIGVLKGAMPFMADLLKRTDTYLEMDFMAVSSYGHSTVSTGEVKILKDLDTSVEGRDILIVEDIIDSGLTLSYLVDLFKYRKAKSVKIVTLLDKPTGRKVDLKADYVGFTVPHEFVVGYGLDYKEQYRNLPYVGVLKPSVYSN
Chain of Gmk (Q81WG7 whole entry, looked up): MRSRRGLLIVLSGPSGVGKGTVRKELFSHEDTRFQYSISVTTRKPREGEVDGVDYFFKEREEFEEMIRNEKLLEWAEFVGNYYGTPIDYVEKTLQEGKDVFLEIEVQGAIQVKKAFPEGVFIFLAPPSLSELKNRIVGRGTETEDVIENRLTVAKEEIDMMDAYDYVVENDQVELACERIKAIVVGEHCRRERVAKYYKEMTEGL
Chain of Der (Q81SW9 whole entry, looked up): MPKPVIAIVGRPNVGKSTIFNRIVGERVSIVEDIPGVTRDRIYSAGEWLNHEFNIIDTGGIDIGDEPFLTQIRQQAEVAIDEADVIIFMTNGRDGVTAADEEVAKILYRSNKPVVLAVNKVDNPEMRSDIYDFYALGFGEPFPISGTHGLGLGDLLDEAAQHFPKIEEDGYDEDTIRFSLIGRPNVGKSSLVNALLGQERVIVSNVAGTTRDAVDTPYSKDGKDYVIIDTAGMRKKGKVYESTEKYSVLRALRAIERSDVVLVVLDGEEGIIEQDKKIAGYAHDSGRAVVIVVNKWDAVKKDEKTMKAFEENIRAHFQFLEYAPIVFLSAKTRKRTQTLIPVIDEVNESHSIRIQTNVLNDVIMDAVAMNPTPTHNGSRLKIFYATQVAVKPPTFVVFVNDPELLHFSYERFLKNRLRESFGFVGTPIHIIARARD

## Nc1nc2c(ncn2[C@@H]2O[C@H](COP(=O)(O)O)[C@@H](OP(=O)(O)OP(=O)(O)O)[C@H]2O)c(=O)[nH]1 [pGpp, guanosine-5′-monophosphate-3′-diphosphate]
Hpt1
  DRaCALA, 1 μM purified protein: confirmed strong pGpp binding to guanosine nucleotide synthesis proteins (Hpt1, Gmk, and Xpt)
Gmk
  DRaCALA, 1 μM purified protein: confirmed strong pGpp binding to guanosine nucleotide synthesis proteins (Hpt1, Gmk, and Xpt)
Rel (RelA)
  32P TLC hydrolysis time course: pGpp was hydrolyzed more rapidly than (p)ppGpp
Xpt
  DRaCALA, 1 μM purified protein: confirmed strong pGpp binding to guanosine nucleotide synthesis proteins (Hpt1, Gmk, and Xpt)

## Nc1nc2c(ncn2[C@@H]2O[C@H](COP(=O)(O)OP(=O)(O)O)[C@@H](OP(=O)(O)OP(=O)(O)O)[C@H]2O)c(=O)[nH]1 [ppGpp]
Obg
  Kd: 6 ± 2 µM
Der
  DRaCALA, 1 μM purified protein: GTPases involved in ribosome biogenesis (HflX, Obg, Der) bind ppGpp but not pGpp
Rel (RelA)
  32P TLC hydrolysis time course: all three nucleotides can be hydrolyzed efficiently by Rel
[1]
  Kd: 60 ± 8 µM

## Nc1nc2c(ncn2[C@@H]2O[C@H](COP(=O)(O)OP(=O)(O)OP(=O)(O)O)[C@@H](OP(=O)(O)OP(=O)(O)O)[C@H]2O)c(=O)[nH]1 [pppGpp]
Obg
  Kd: 48 ± 7 µM
[1]
  Kd: 296 ± 50 µM

B1: NahA (YvcI) (Bacillus subtilis subsp. subtilis str. 168) (protein)
chain: MTYLQRVTNCVLQTDDKVLLLQKPRRGWWVAPGGKMESGESVRDSVIREYREETGIYIINPQLKGVFTFIIKDGDHIVSEWMMFTFVADSYTGQNVSESEEGKLQWHDVNDIQNLPMAPGDGHILDFMMKGQGLLHGTFTYTPEFELLSYRLDPQHIK
Purified protein [2]
  K0.5: 177.4 ± 0.4 µM
  kcat: 10 ± 0.5 s⁻¹
Purified protein [3]
  Km: 7.5 ± 2.3 µM
  kcat: 1.22 ± 0.17 s⁻¹

Reference: article PMC7584652 (Nature Communications, 2020)
